Source: patent publication US20230101743A1, “SUBSTITUTED TRIAZINE COMPOUNDS AND USES THEREOF” (MUSC FOUNDATION FOR RESEARCH DEVELOPMENT, priority 2020, published 2023)

What was measured:
APOB mRNA = APOB mRNA level by real-time qPCR; type: cell-based, human; details: 2 μg/mL, 24 hours
Description: G. Human iPSC-derived hepatocytes were treated with 2 μg/mL of DL-1 or equivalent concentration of DMSO for 24 hours. […] (A) APOB mRNA level was determined using real-time qPCR. (B) Intracellular APOB, LDLR, and HSP90 protein levels were determined via immunoblot. (C) Quantification of biological replicates of immunoblots on samples treated as in (B). Data are shown as mean±SEM of four replicates (n=4).
C. Human iPSC-derived hepatocytes (iPSC-Heps) were treated with 2 μg/mL of DL-1 or equivalent concentration of DMSO for 24 hours. In FIG. 7A, APOB mRNA level was determined using real-time qPCR. In FIG. 7B Intracellular APOB, LDLR, and HSP90 protein levels were determined via immunoblot; Quantification of biological replicates of immunoblots. Data are shown as mean±SD of four replicates (n=4). In FIG. 12A LDL uptake assay was performed by pre-treating cells with 2 μg/mL of DL-1, 20 μM of Atorvastatin, and equivalent concentration of DMSO for 24 hours followed by 4 hours of pHrodo-LDL exposure; LDL endocytosis was determined and quantified by fluorescence image; data are shown as mean±SD of triplicates (n=3). […]
Human iPSC-derived hepatocytes (Day 20) were treated with 2 μg/mL of DL-1 for 24 hours. […] Quantitative real-time PCR was performed on a BioRad CFX384 real-time PCR machine.

[1] = Solubilities in water and 1 x PBS buffer (UV-vis); type: physicochemical; details: 25° C.
Description: The molar extinction co-efficients of exemplary cholesterol lowering compounds were measured in 1 x PBS buffer. The compounds were first dissolved in dimethyl sulfoxide. Solutions with a 0.5 mg/ml concentration were then prepared in DMSO. These solutions were diluted further with 1 x PBS by 100-fold, resulting in solutions with a 5 ug/ml concentration. The resulted diluted solutions were then measured and scanned using a UV-vis spectrophotometer for ultra-violet absorbances between 240 nm to 400 nm, using a UV 96-well microplate. The maximum UV absorbances and corresponding wavelengths were recorded (Table 1). The absorbance values were subtracted by that of a blank, 1 x PBS buffer containing […]. The volume of the solutions for UV measurements was 300 ul and the depth of the solutions was 0.7 cm. The molar extinction co-efficients were then calculated based on formula
The solubilities of the exemplary cholesterol lowering compounds were measured in water and 1 x PBS buffer. The compounds were first stirred with water and 1 x PBS buffer individually at room temperature for 1 h. The suspensions were then centrifuged for 2 min. The top clear solutions were filtered through filter paper, resulting in mother liquids, which were centrifuged again and diluted with 1 x PBS buffer for 10-fold for the solubilities in water and 100-fold the solubilities in 1 x PBS buffer. The resulted solutions were measured using a UV-vis spectrophotometer for UV absorbances with the maximum absorbances. The values were subtracted by that of a blank, 1 x PBS buffer. The corrected absorbances were then used to calculate the corresponding concentrations using the formula (1) and extinction coefficients (Table 1) shown above. The individual concentrations were then used to calculate the solubilities in 1.0 mL of water and 1 x PBS buffer.
The compounds were dissolved in DMSO to either 50 mg/ml, 10 mg/ml or 5 mg/ml solutions, which were diluted to 0.5 mg/ml with DMSO. These solutions were then diluted to 5 ug/ml with 1 x PBS buffer. The resulted solutions were then measured in a UV-vis spectrophotometer for UV scanning from 240 nm to 400 nm at 25° C. The absorbance values were subtracted by that of a blank, 1 x PBS buffer containing DMSO. The total volume of the solutions was 300 uL and the path length for each well was 0.7 cm in a UV 96-well plate. The extinction coefficients of the compounds were then calculated based on molar concentrations and the corrected UV absorbances at the maximum absorption (Table 1).
The mixtures wer stirred for 1 h at room temperature, transferred to 1.5 mL Eppendorf tubes, and centrifuged for 2 min. The clear solutions were filtered through filter papers, affording clear solutions, which were centrifuged again for 2 min. The top clear solutions were diluted by 1 x PBS buffer by 10-fold for the solubilities in water and 100-fold for the solubilities in 1 x PBS buffer. The new clear solutions were then measured individually using a UV-vis spectrophotometer and a UV 96-well microplate. The absorbance values were subtracted by that of a blank, 1 x PBS buffer. Concentrations and solubilities of the compounds were then calculated using their extinct coefficients and the corrected UV absorbances at the maximum absorptions (Table 1).

Sc1nc(S)nc(Nc2ccc(Nc3ccccc3)cc2)n1 (racemic) [DL-1, 6-{[4-(phenylamino)phenyl]amino}-1,3,5-triazine-2,4-dithiol]
APOB mRNA level (APOB mRNA): no impact on APOB mRNA and intracellular protein levels
Solubility in 1.0 ml PBS buffer ([1]; 1 × PBS buffer): 25 µg
Solubility in 1.0 ml water ([1]; water): 0.37 µg
